Reference: PubChem BioAssay AID1963861 (Molecular Pharmacology Branch, DTP, NCI, 2024)
“And” between values parts separate entries of the source, which are not always exact repeats. Equal entries are not always repeated.

Test system: 885724-159-R-J1-PDC KRAS PDC multicell spheroid viability
Experiment: Anticancer human tumor 885724-159-R-J1-PDC patient-derived pancreatic adenocarcinoma cell line growth inhibition [KRAS2]
Conditions: for viability, T/C: stronger effect = lower value
In short: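 KRAS-mutant tumor cells were grown as spheroids with HUVEC endothelial cells and human MSCs as stroma. Targeted agents were tested alone and with KRAS pathway inhibitors. Doses started at or near clinical Cmax, or 10 microM, descending half-log.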

[1] = curve of first compound, second compound 0.1 µM
[2] = curve of first compound, second compound 0.316 µM
[3] = curve of first compound, second compound 1 µM
[4] = curve of first compound, second compound 3.16 µM
[5] = curve of first compound, second compound 10 µM
[6] = second compound 0.1 µM, first compound 0.0316 µM
[7] = second compound 0.1 µM, first compound 0.1 µM
[8] = second compound 0.316 µM, first compound 0.0316 µM
[9] = second compound 0.316 µM, first compound 0.1 µM
[10] = second compound 1 µM, first compound 0.0316 µM
[11] = second compound 1 µM, first compound 0.1 µM
[12] = second compound 3.16 µM, first compound 0.0316 µM
[13] = second compound 3.16 µM, first compound 0.1 µM
[14] = second compound 10 µM, first compound 0.0316 µM
[15] = second compound 10 µM, first compound 0.1 µM
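Note: spheroids exposed to agents for 7 days before readout.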

CCNC(=O)CC1N=C(c2ccc(Cl)cc2)c2cc(OC)ccc2-n2c(C)nnc21 (configuration not stated)
viability, T/C (compound 0.0316 µM): 112% [middle of 5 runs] | viability, T/C (compound 0.1 µM): 102% [middle of 5 runs] | viability, T/C (compound 0.316 µM): 78.4% [middle of 5 runs] | viability, T/C (compound 1 µM): 66.7% [middle of 5 runs] | viability, T/C (compound 3.16 µM): 59.7% [middle of 5 runs] | viability, T/C (compound 10 µM): 51.8% [middle of 5 runs] | IC50 (curve of compound): > 10 µM and 8.28 µM

CN(C)C/C=C/C(=O)Nc1cc2c(Nc3ccc(F)c(Cl)c3)ncnc2cc1O[C@H]1CCOC1 + COc1cc2nc(C)nc(NC(C)c3cc(N)cc(C(F)(F)F)c3)c2cc1OC1CCOC1
IC50 [1]: > 0.1 µM | IC50 [2]: > 0.1 µM | IC50 [3]: > 0.1 µM | IC50 [4]: > 0.1 µM | IC50 [5]: > 0.1 µM | viability, T/C (second compound 0.1 µM, first compound 0.000316 µM): 116% | viability, T/C (second compound 0.1 µM, first compound 0.001 µM): 103% | viability, T/C (second compound 0.1 µM, first compound 0.00316 µM): 97.1% | viability, T/C (second compound 0.1 µM, first compound 0.01 µM): 88.9% | viability, T/C [6]: 79.6% | viability, T/C [7]: 69.2% | viability, T/C (second compound 0.316 µM, first compound 0.000316 µM): 98.7% | viability, T/C (second compound 0.316 µM, first compound 0.001 µM): 102% | viability, T/C (second compound 0.316 µM, first compound 0.00316 µM): 92.9% | viability, T/C (second compound 0.316 µM, first compound 0.01 µM): 89% | viability, T/C [8]: 67.3% | viability, T/C [9]: 66.7% | viability, T/C (second compound 1 µM, first compound 0.000316 µM): 96.4% | viability, T/C (second compound 1 µM, first compound 0.001 µM): 120% | viability, T/C (second compound 1 µM, first compound 0.00316 µM): 110% | viability, T/C (second compound 1 µM, first compound 0.01 µM): 96% | viability, T/C [10]: 79.1% | viability, T/C [11]: 73.3% | viability, T/C (second compound 3.16 µM, first compound 0.000316 µM): 88.4% | viability, T/C (second compound 3.16 µM, first compound 0.001 µM): 102% | viability, T/C (second compound 3.16 µM, first compound 0.00316 µM): 80.3% | viability, T/C (second compound 3.16 µM, first compound 0.01 µM): 72.5% | viability, T/C [12]: 68% | viability, T/C [13]: 61.8% | viability, T/C (second compound 10 µM, first compound 0.000316 µM): 87.1% | viability, T/C (second compound 10 µM, first compound 0.001 µM): 85.7% | viability, T/C (second compound 10 µM, first compound 0.00316 µM): 75.2% | viability, T/C (second compound 10 µM, first compound 0.01 µM): 63.1% | viability, T/C [14]: 60% | viability, T/C [15]: 61.2%

CC(C)NCC(C(=O)N1CCN(c2ncnc3c2C(C)CC3O)CC1)c1ccc(Cl)cc1 (configuration not stated) + COc1cc2nc(C)nc(NC(C)c3cc(N)cc(C(F)(F)F)c3)c2cc1OC1CCOC1
IC50 [1]: > 10 µM | IC50 [2]: > 10 µM | IC50 [3]: > 10 µM | IC50 [4]: 8.31 µM | IC50 [5]: < 0.0316 µM | viability, T/C [6]: 86.3% | viability, T/C [7]: 77.1% | viability, T/C (second compound 0.1 µM, first compound 0.316 µM): 75.7% | viability, T/C (second compound 0.1 µM, first compound 1 µM): 71.6% | viability, T/C (second compound 0.1 µM, first compound 3.16 µM): 74.6% | viability, T/C (second compound 0.1 µM, first compound 10 µM): 56.8% | viability, T/C [8]: 88.8% | viability, T/C [9]: 87.2% | viability, T/C (second compound 0.316 µM, first compound 0.316 µM): 70.5% | viability, T/C (second compound 0.316 µM, first compound 1 µM): 70.3% | viability, T/C (second compound 0.316 µM, first compound 3.16 µM): 75.7% | viability, T/C (second compound 0.316 µM, first compound 10 µM): 57.7% | viability, T/C [10]: 86.4% | viability, T/C [11]: 77.5% | viability, T/C (second compound 1 µM, first compound 0.316 µM): 69.1% | viability, T/C (second compound 1 µM, first compound 1 µM): 70.8% | viability, T/C (second compound 1 µM, first compound 3.16 µM): 71.6% | viability, T/C (second compound 1 µM, first compound 10 µM): 56.4% | viability, T/C [12]: 76.7% | viability, T/C [13]: 72.3% | viability, T/C (second compound 3.16 µM, first compound 0.316 µM): 66% | viability, T/C (second compound 3.16 µM, first compound 1 µM): 71.3% | viability, T/C (second compound 3.16 µM, first compound 3.16 µM): 76.9% | viability, T/C (second compound 3.16 µM, first compound 10 µM): 45.8% | viability, T/C [14]: 39.2% | viability, T/C [15]: 37.5% | viability, T/C (second compound 10 µM, first compound 0.316 µM): 26.9% | viability, T/C (second compound 10 µM, first compound 1 µM): 20.8% | viability, T/C (second compound 10 µM, first compound 3.16 µM): 11.5% | viability, T/C (second compound 10 µM, first compound 10 µM): 6.18%
